Measurements reported in patent US7977313B2, “Methods and compositions for promoting localization of pharmaceutically active agents to bone” (Affinergy, Inc., priority 2007, dated 2011).
Where two headings read alike, the source gives them in different places. Where a SMILES comes first, the peptide text is derived from it. Where no end group is shown, it is not given here. [ ]: non-standard residue; d: D form. The star is where a group is joined. Biotin = O=C1N[C@H]2[C@H](CS[C@H]2CCCCC(=O)*)N1; PEG10 = NCCOCCOCCOCCOCCOCCOCCOCCOCCOCCOCCC(=O)O

Legend:
[1] = molecular target: demineralized cortical bone (DCB); test: Biotinylated peptide binding to demineralized cortical bone
Description: (§1) Relative binding strengths of the peptides to bone, also used as a measure of binding specificity, were determined by testing serial dilutions of the peptide for binding to bone, as represented by DBM. Plotting the absorbance observed across the concentration range for each peptide sequence yielded a binding curve of the peptides to its target substrate from which can be determined an EC50. The goal of the screenings and selections was to identify one or more peptides that bind to the selected substrate with binding specificity, with an EC50 of less than or equal to about 10 μM, and for some embodiments, in the nanomolar range (<1 μM). […] As a specific example, DBM was placed in a microtiter plate at a concentration of 3 mg equivalents per well, and then the wells were blocked with buffer containing 1% BSA for 1 hour at room temperature. The buffer containing 1% BSA was then aspirated from each well, and added to the wells were the serial dilutions of biotinylated peptide. The microtiter plates were incubated for 1 hour at room temperature on a plate shaker. The DBM was then allowed to settle, and the buffer was then aspirated from the wells. The DBM was washed three times with buffer-T, and then streptavidin-alkaline phosphatase was added. The microtiter plates were incubated for 1 hour at room temperature on a plate shaker. The DBM was then allowed to settle, and the buffer was then aspirated from the wells. The DBM was washed three times with buffer-T, pNPP (p-nitrophenyl phosphate) was used to develop the assay, and the absorbance was recorded at 405 nm. An estimate of the relative affinity (binding specificity, EC50) of a peptide for bone can be made by determining the concentration of peptide that gives one-half the maximal signal in the assay. Using the methodology illustrated in Example 1, the peptides illustrated in Table 3 were also tested for relative binding strength to demineralized cortical bone, and to cancellous bone, additional evidence of binding specificity for bone.

[2] = molecular target: demineralized bone matrix (DBM); test: Biotinylated peptide binding to demineralized bone matrix (ELISA-type, streptavidin-alkaline phosphatase/pNPP); parameters: species or system human
Description: Relative binding strengths of the peptides to bone, also used as a measure of binding specificity, were determined by testing serial dilutions of the peptide for binding to bone, as represented by DBM. Plotting the absorbance observed across the concentration range for each peptide sequence yielded a binding curve of the peptides to its target substrate from which can be determined an EC50. The goal of the screenings and selections was to identify one or more peptides that bind to the selected substrate with binding specificity, with an EC50 of less than or equal to about 10 μM, and for some embodiments, in the nanomolar range (<1 μM).
As a specific example, DBM was placed in a microtiter plate at a concentration of 3 mg equivalents per well, and then the wells were blocked with buffer containing 1% BSA for 1 hour at room temperature. The buffer containing 1% BSA was then aspirated from each well, and added to the wells were the serial dilutions of biotinylated peptide. The microtiter plates were incubated for 1 hour at room temperature on a plate shaker. The DBM was then allowed to settle, and the buffer was then aspirated from the wells. The DBM was washed three times with buffer-T, and then streptavidin-alkaline phosphatase was added. The microtiter plates were incubated for 1 hour at room temperature on a plate shaker. The DBM was then allowed to settle, and the buffer was then aspirated from the wells. The DBM was washed three times with buffer-T, pNPP (p-nitrophenyl phosphate) was used to develop the assay, and the absorbance was recorded at 405 nm. An estimate of the relative affinity (binding specificity, EC50) of a peptide for bone can be made by determining the concentration of peptide that gives one-half the maximal signal in the assay.
Example 1 illustrates methods to determine the relative binding strengths of peptide to bone. […] A biotin molecule was linked to the C-terminal lysine. Also shown in Table 3 are the relative binding strengths expressed as EC50 (μM) to bone as represented by DBM of human origin. It is noted that the EC50 values were the same or substantially similar when DBM of rabbit origin was used.
Relative binding strength embodiments of the compositions to bone, also used as a measure of binding specificity, were determined by testing serial dilutions of the composition for binding to bone, as described in Example 1 Section B. Plotting the absorbance observed across the concentration range for each composition yielded a binding curve and rough dissociation constant of the composition for bone. Similar to a peptide having binding specificity for bone from which the composition is made, one property of the composition embodiments is that they bind to bone with binding specificity as measured by an EC50 of less than or equal to about 10 μM, and for some embodiments, in the nanomolar range (<1 μM). Using the methods outlined in Example 1B herein, assayed were the relative binding strengths of […] illustrative composition embodiments which include the amino acid sequences shown in SEQ ID NOs: 137, 138, 139, 140, 141 & 142, see Table 7, and synthesized to include a C-terminal amino linker which was biotinylated to facilitate determination of the relative binding strengths to bone. Shown in Table 8 are the relative binding strengths of composition embodiments to bone, as represented by DBM, expressed as EC50 (in μM).

[3] = molecular target: cancellous bone (CNB); test: Biotinylated peptide binding to cancellous bone
Description: as §1

[4] = DBM of human origin, biotinylated peptide, read-out: Binding specificity for bone (e.g., DBM) EC50
[5] = demineralized bone matrix, read-out: EC50 (μM) for DBM
[6] = bone as represented by DBM, biotinylated composition, read-out: Binding specificity for bone EC50 (compositions X1-J-X2)

| Compound | EC50 [1] | EC50 [2, 4] | EC50 [2, 5] | EC50 [3] | EC50 [2, 6] |
| --- | --- | --- | --- | --- | --- |
| CC(C)C[C@H](NC(=O)[C@H](CO)NC(=O)[C@H](CCCNC(=N)N)NC(=O)[C@H](Cc1ccccc1)NC(=O)[C@H](CC(=O)O)NC(=O)[C@H](Cc1c[nH]c2ccccc12)NC(=O)[C@@H](N)CO)C(=O)N[C@@H](CCCNC(=N)N)C(=O)N[C@@H](CC(=O)O)C(=O)N[C@@H](Cc1c[nH]c2ccccc12)C(=O)N[C@@H](Cc1c[nH]c2ccccc12)C(=O)N1CCC[C@H]1C(=O)N1CCC[C@H]1C(=O)N[C@@H](C)C(=O)N1CCC[C@H]1C(=O)N[C@@H](CO)C(=O)N[C@@H](CC(C)C)C(=O)N[C@@H](CO)C(=O)N[C@@H](CO)C(=O)N[C@@H](CCCNC(=N)N)C(=O)NCC(=O)N[C@@H](CO)C(=O)N[C@@H](CO)C(=O)NCC(=O)N[C@@H](CCCCNC(=O)CCCC[C@@H]1SC[C@@H]2NC(=O)N[C@@H]21)C(=O)O [compound 45] (H-SWDFRSLRDWWPPAPSLSSRGSSGK(Biotin)-OH) | < 1 µM | < 1 µM | < 1 µM | < 1 µM | – |
| CC(C)[C@H](NC(=O)[C@@H]1CCCN1C(=O)[C@H](C)NC(=O)[C@H](C)NC(=O)[C@H](CO)NC(=O)CNC(=O)[C@H](CC(N)=O)NC(=O)[C@H](Cc1c[nH]c2ccccc12)NC(=O)[C@H](Cc1ccccc1)NC(=O)CNC(=O)[C@H](Cc1c[nH]c2ccccc12)NC(=O)[C@H](Cc1c[nH]c2ccccc12)NC(=O)[C@@H](N)CO)C(=O)N[C@@H](Cc1c[nH]c2ccccc12)C(=O)N[C@@H](CO)C(=O)N[C@@H](CCCNC(=N)N)C(=O)NCC(=O)N[C@@H](CO)C(=O)N[C@@H](CO)C(=O)NCC(=O)N[C@@H](CCCCNC(=O)CCCC[C@@H]1SC[C@@H]2NC(=O)N[C@@H]21)C(=O)O [compound 41] (H-SWWGFWNGSAAPVWSRGSSGK(Biotin)-OH) | < 0.1 µM | < 0.1 µM | < 0.1 µM | ≤ 0.1 µM | – |
| SWWGFWNGSAAPVWSRGSSESAGAWEAFSSLSGSRVGSSGK(Biotin) [compound 137] | – | – | – | – | < 0.5 µM |
| CC(C)C[C@H](NC(=O)[C@H](CO)NC(=O)[C@H](CO)NC(=O)[C@H](Cc1ccccc1)NC(=O)[C@H](C)NC(=O)[C@H](CCC(=O)O)NC(=O)[C@H](Cc1c[nH]c2ccccc12)NC(=O)[C@H](C)NC(=O)CNC(=O)[C@H](C)NC(=O)CNC(=O)[C@H](CO)NC(=O)[C@H](CO)NC(=O)CNC(=O)[C@H](CCCNC(=N)N)NC(=O)[C@H](CO)NC(=O)[C@H](Cc1c[nH]c2ccccc12)NC(=O)[C@@H](NC(=O)[C@@H]1CCCN1C(=O)[C@H](C)NC(=O)[C@H](C)NC(=O)[C@H](CO)NC(=O)CNC(=O)[C@H](CC(N)=O)NC(=O)[C@H](Cc1c[nH]c2ccccc12)NC(=O)[C@H](Cc1ccccc1)NC(=O)CNC(=O)[C@H](Cc1c[nH]c2ccccc12)NC(=O)[C@H](Cc1c[nH]c2ccccc12)NC(=O)[C@@H](N)CO)C(C)C)C(=O)N[C@@H](CO)C(=O)NCC(=O)N[C@@H](CO)C(=O)N[C@@H](CCCNC(=N)N)C(=O)N[C@H](C(=O)NCC(=O)N[C@@H](CO)C(=O)N[C@@H](CO)C(=O)NCC(=O)N[C@@H](CCCCNC(=O)CCCC[C@@H]1SC[C@@H]2NC(=O)N[C@@H]21)C(=O)O)C(C)C [compound 138] (H-SWWGFWNGSAAPVWSRGSSGAGAWEAFSSLSGSRVGSSGK(Biotin)-OH; N-terminus and C-terminus assumed) | – | – | – | – | < 0.1 µM |
| C[C@H](NC(=O)CNC(=O)[C@H](CO)NC(=O)CNC(=O)[C@H](Cc1c[nH]c2ccccc12)NC(=O)[C@H](Cc1c[nH]c2ccccc12)NC(=O)[C@H](Cc1c[nH]c2ccccc12)NC(=O)[C@H](CO)NC(=O)CNC(=O)[C@H](Cc1ccccc1)NC(=O)[C@@H](N)CO)C(=O)N[C@@H](C)C(=O)N[C@@H](CO)C(=O)N[C@@H](CO)C(=O)N[C@@H](CCCNC(=N)N)C(=O)NCC(=O)N[C@@H](CO)C(=O)N[C@@H](CO)C(=O)NCC(=O)N[C@@H](CCCCNC(=O)CCCC[C@@H]1SC[C@@H]2NC(=O)N[C@@H]21)C(=O)O [compound 42] (H-SFGSWWWGSGAASSRGSSGK(Biotin)-OH) | < 0.1 µM | < 0.1 µM | < 0.1 µM | < 0.5 µM | – |
| SWWGFWNGSAAPVWSRGSSGAGALGFPLKGEVVEGWAGSSGK(Biotin) [compound 139] | – | – | – | – | < 0.5 µM |

The remaining lines, values ahead:

| EC50 [1] | EC50 [2, 4] | EC50 [2, 5] | EC50 [3] | EC50 [2, 6] | Compound |
| --- | --- | --- | --- | --- | --- |
| – | – | – | – | < 0.5 µM | SFGSWWWGSGAASSRGSSGGGALGFPLKGEVVEGWAGSSGK(Biotin) [compound 140] |
| – | – | – | – | < 0.5 µM | CC(C)C[C@H](NC(=O)[C@H](CO)NC(=O)[C@H](CO)NC(=O)[C@H](Cc1ccccc1)NC(=O)[C@H](C)NC(=O)[C@H](CCC(=O)O)NC(=O)[C@H](Cc1c[nH]c2ccccc12)NC(=O)[C@H](C)NC(=O)CNC(=O)[C@H](C)NC(=O)CCOCCOCCOCCOCCOCCOCCOCCOCCOCCOCCNC(=O)CNC(=O)[C@H](CCCNC(=N)N)NC(=O)[C@H](CO)NC(=O)[C@H](CO)NC(=O)[C@H](C)NC(=O)[C@H](C)NC(=O)CNC(=O)[C@H](CO)NC(=O)CNC(=O)[C@H](Cc1c[nH]c2ccccc12)NC(=O)[C@H](Cc1c[nH]c2ccccc12)NC(=O)[C@H](Cc1c[nH]c2ccccc12)NC(=O)[C@H](CO)NC(=O)CNC(=O)[C@H](Cc1ccccc1)NC(=O)[C@@H](N)CO)C(=O)N[C@@H](CO)C(=O)NCC(=O)N[C@@H](CO)C(=O)N[C@@H](CCCNC(=N)N)C(=O)N[C@H](C(=O)NCC(=O)N[C@@H](CO)C(=O)N[C@@H](CO)C(=O)NCC(=O)N[C@@H](CCCCNC(=O)CCCC[C@@H]1SC[C@@H]2NC(=O)N[C@@H]21)C(N)=O)C(C)C [compound 142] (H-SFGSWWWGSGAASSRG[PEG10]AGAWEAFSSLSGSRVGSSGK(Biotin)-NH2; N-terminus and C-terminus assumed) |
| – | – | – | – | < 0.5 µM | CC(C)C[C@H](NC(=O)[C@H](CO)NC(=O)[C@H](CO)NC(=O)[C@H](Cc1ccccc1)NC(=O)[C@H](C)NC(=O)[C@H](CCC(=O)O)NC(=O)[C@H](Cc1c[nH]c2ccccc12)NC(=O)[C@H](C)NC(=O)CNC(=O)CNC(=O)CNC(=O)CCOCCOCCOCCOCCOCCOCCOCCOCCOCCOCCNC(=O)CNC(=O)[C@H](CCCNC(=N)N)NC(=O)[C@H](CO)NC(=O)[C@H](CO)NC(=O)[C@H](C)NC(=O)[C@H](C)NC(=O)CNC(=O)[C@H](CO)NC(=O)CNC(=O)[C@H](Cc1c[nH]c2ccccc12)NC(=O)[C@H](Cc1c[nH]c2ccccc12)NC(=O)[C@H](Cc1c[nH]c2ccccc12)NC(=O)[C@H](CO)NC(=O)CNC(=O)[C@H](Cc1ccccc1)NC(=O)[C@@H](N)CO)C(=O)N[C@@H](CO)C(=O)NCC(=O)N[C@@H](CO)C(=O)N[C@@H](CCCNC(=N)N)C(=O)N[C@H](C(=O)NCC(=O)N[C@@H](CO)C(=O)N[C@@H](CO)C(=O)NCC(=O)N[C@@H](CCCCNC(=O)CCCC[C@@H]1SC[C@@H]2NC(=O)N[C@@H]21)C(N)=O)C(C)C [compound 141] (H-SFGSWWWGSGAASSRG[PEG10]GGGAWEAFSSLSGSRVGSSGK(Biotin)-NH2; N-terminus and C-terminus assumed) |
